The source of these data is publication PMC11181322, “Copper(II) Complexes with Isomeric Morpholine-Substituted 2-Formylpyridine Thiosemicarbazone Hybrids as Potential Anticancer Drugs Inhibiting Both Ribonucleotide Reductase and Tubulin Polymerization: The Morpholine Position Matters” (Journal of Medicinal Chemistry, 2024).

Broadly, the IC50 is the concentration that inhibits the measured activity by half.

One data set deals with MES-SA cells. Briefly: Fluorescent protein-based cytotoxicity assay, MES-SA. In kind it is cell-based, human. The conditions noted are these: 120 h; ± SD; n = 3. The text has this:
The cytotoxic activity of proligands H2L^3–H2L^6 and their copper(II) complexes 3–6 was investigated in the MES-SA (human uterine sarcoma) and in its MDR counterpart (MES-SA/Dx5) cell lines by a fluorescent protein-based assay.[73]
The human uterine sarcoma cell lines MES-SA and the doxorubicin selected MES-SA-Dx5 were obtained from ATCC (MES-SA: No. CRL-1976, MES-SA/Dx5: No. CRL-1977) and were used for the intracellular ROS generation studies. For cytotoxicity, we used the fluorescent cell lines MES-SA mCherry and MES-SA/Dx5 eGFP, which were created by lentiviral transductions of the respective genes.[73] The phenotype of the resistant cells was maintained by 500 nM doxorubicin treatment a week before use and was verified using cytotoxicity assays. Cells were cultivated at 37 °C, 5% CO2 in Dulbecco’s modified Eagle's Medium (DMEM, Sigma-Aldrich), supplemented with 10% fetal bovine serum, 5 mM glutamine, and 50 unit/mL penicillin and streptomycin (Thermo Fisher).
MES-SA mCherry and MES-SA/Dx5 eGFP cell suspensions were seeded after trypsinization at 2500 cells/20 μL density on 384-well plates, containing 20 μL of completed medium. The next day, serial dilution of the compounds was prepared and added in an additional 20 μL, with or without 0.4 μM Tariquidar. Liquid handling steps were performed by a Hamilton StarLet robot. […] The mean and standard deviation of the pIC50 values were calculated and converted to IC50 values.

Data set [1] can be described thus: Cyclic voltammetry of copper(II) complexes in DMSO/n-Bu4NPF6. Type of data set: physicochemical. The conditions noted are these: for Epa^1: first anodic peak potential vs Fc+/Fc; for Epa^1 / Epa^2: 100 mV s^–1; for Epa^2: second anodic peak potential vs Fc+/Fc; for E1/2^red: vs Fc+/Fc, scan rate 100 mV s^–1. On the procedure:
The redox properties of the copper(II) complexes 3–6 were investigated by electrochemical, EPR, and UV–vis spectroelectrochemical measurements. […] While the half-wave reduction potentials E1/2^red for complexes 3–5 were almost the same (−0.82 V vs Fc^+/Fc), the E1/2^red for 6 is by 0.07 V more positive (−0.75 V vs Fc^+/Fc), as summarized in Table 4. The corresponding proligands are not redox active in the cathodic part (not shown).
Cyclic voltammetric experiments with 0.5 mM solutions of copper(II) complexes 3–6 in 0.1 M nBu4NPF6 (puriss quality from Fluka; dried under reduced pressure at 70 °C for 24 h before use) as supporting electrolyte in DMSO (SeccoSolv max. 0.025% H2O, Merck) were performed under Ar using a three-electrode arrangement with Pt wire as the counter electrode and Ag wire as the pseudoreference electrode. Glassy carbon or Pt wire served as the working electrode. Ferrocene purchased from Sigma-Aldrich was used as the internal potential standard without further purification. All potentials in voltammetric studies were quoted vs ferricenium/ferrocene (Fc^+/Fc) as the redox couple. A Heka PG310USB (Lambrecht, Germany) potentiostat with a PotMaster 2.73 software package served for the potential control in voltammetric studies. In situ ultraviolet–visible-near-infrared (UV–vis–NIR) spectroelectrochemical measurements were performed on a spectrometer (Avantes, Model AvaSpec-2048 × 14-USB2 in the spectroelectrochemical cell kit ([…]3) with the Pt-microstructured honeycomb working electrode, purchased from Pine Research Instrumentation. The cell was positioned in the CUV-UV Cuvette Holder (Ocean Optics) connected to the diode array UV–vis-NIR spectrometer by optical fibers. UV–vis-NIR spectra were processed using the AvaSoft 7.7 software package. Halogen and deuterium lamps were used as light sources (Avantes, Model AvaLight-DH-S-BAL).

The subject of the next data set is purified tubulin. Briefly: Inhibition of polymerization of purified tubulin. Type of data set: biochemical. As to conditions: read-out: inhibition of tubulin IC50 ± SD.
Data set [2] can be described thus: Redox reaction of the copper(II) complexes with GSH (UV–vis, anoxic). Type of data set: physicochemical. The conditions noted are these: pH 7.4 (50 mM HEPES); ccomplex = 25 μM; cGSH = 1.25 mM; pure water; 25 °C. The source says: The direct reduction of the copper(II) complexes with the antioxidant GSH was investigated in anoxic aqueous solution at pH 7.4 by UV–vis spectrophotometry. At this pH, the complex [Cu(HL)]^+ is assumed to predominate according to the speciation studies (vide supra). The spectral changes were monitored in the wavelength range 250–550 nm by using a large excess of GSH (50 equiv). In this wavelength range, the spectral changes are due to the absorption of the metal complex and the ligand.
These changes imply that, after reduction in the presence of excess GSH, the generated copper(I) complex is not stable and liberates the free TSC ligand. […] The time-dependent absorbance changes are shown for all the studied systems in Figure 4b. The observed rate constants (kobs) were calculated (Table 2) as a semiquantitative description of the reaction kinetics. […] The obtained kobs values fall into the range for Triapine (0.10 min^–1), 2-pyridinecarboxaldehyde TSC (0.041 min^–1), and N-monomethylated N-methyl-Triapine (0.077 min^–1), measured under similar conditions.[67] To find out whether this slightly different kinetics for 6 and 3–5 is in accordance with their reduction potentials, cyclic voltammetry was performed.
The redox reaction of the copper(II) complexes with GSH and ascorbic acid was studied at 25.0 ± 0.1 °C on a Hewlett-Packard 8452A diode array spectrophotometer using a special, tightly closed tandem cuvette (Hellma Tandem Cell, 238-QS). The reactants were separated until the reaction was triggered. Both isolated pockets of the cuvette were completely deoxygenated by bubbling a stream of Ar for 10 min before mixing the reactants. Spectra were recorded before and then immediately after the mixing, and changes were followed until no further absorbance change was observed. One of the isolated pockets contained the reducing agent, and the other contained the complex. Their final concentrations were 1250 and 25 μM, respectively. The pH of all the solutions was adjusted to 7.40 by 50 mM HEPES buffer. The ionic strength of the solution was 0.1 M (KCl). The stock solutions of the reducing agents and the complexes were freshly prepared every day. During the calculations, the absorbance (A) – time (t) curves were fitted and analyzed at the λmax of the complex. (A0 – Afinal) × e^(−a×t) + Afinal was the fitting equation used, where the A0, Afinal, and a parameters were refined and accepted at the minimal value of the weighted sum of squared residuals (difference between the measured and calculated absorbance values) at the given wavelength. Then, observed rate constants (kobs) of the redox reaction were obtained from the data points of the simulated absorbance–time curves as the slope of the ln(A/A0) vs time plots.

In the data set on MES-SA cells, `Cc1cc(NC(=NN=Cc2cc(CN3CCOCC3)ccn2)[S][Cu][Cl])cc(C)c1O` [complex 4, [Cu(HL^4)Cl]·1.5H2O] yielded an IC50 of 19.2 ± 1.7 µM. For the same compound, in data set [1], the “Epa^1” value is given as “+0.31 V”, the “Epa^2” value is given as “+0.77 V” and the “E1/2^red” value was “–0.82 V”. In addition, in the data set with purified tubulin, the IC50 came to 15 ± 1 µM. Besides, the “kobs, redox reaction with GSH” value in data set [2] came out at 0.079 ± 0.019 min^–1.

The compound `Cc1cc(NC(=NN=Cc2ccc(CN3CCOCC3)cn2)[S][Cu][Cl])cc(C)c1O` [complex 5, [Cu(HL^5)Cl]·2.5H2O] registered an IC50 in the data set on MES-SA cells of 31 ± 6.2 µM. Further, in data set [1], the “Epa^1” value is given as “+0.29 V”, the “Epa^2” value was “+0.69 V” and the “E1/2^red” value is given as “–0.82 V”. Also, in the data set on purified tubulin, the IC50 was determined as 15 ± 0.4 µM. For the same compound, the “kobs, redox reaction with GSH” value in data set [2] is recorded as 0.058 ± 0.010 min^–1.

In turn, `Cc1cc(NC(=NN=Cc2cccc(CN3CCOCC3)n2)[S][Cu][Cl])cc(C)c1O` [complex 6, [Cu(HL^6)Cl]·H2O] registered an IC50 with MES-SA cells of 0.29 µM. In addition, in data set [1], the “Epa^1” value is “+0.26 V” and the “Epa^2” value was “+0.66 V”. In addition, the IC50 with purified tubulin was 5 ± 0.3 µM. In addition, in data set [2], the “kobs, redox reaction with GSH” value is on record as 0.165 ± 0.011 min^–1.
